# Legend:
# [1] = tested on: MOLT-4; assay: Cell viability assay (MTS) in MOLT-4 cells; format: cell-based; settings: Homo sapiens, MOLT-4; Table 2; 48 hr; MTS; read-out: Anti-Cancer Activity IC50 (48 hr) MOLT-4
# Method: (§1) Acute lymphoblastic leukemia cells (MOLT-4 and RS4; 11) were incubated with increasing concentrations of Bcl-xL degraders for 48 h. Cell viability was measured by tetrazolium-based MTS assay.
# [2] = tested on: RS4; 11; assay: Cell viability assay (MTS) in RS4; 11 cells; format: cell-based; settings: Homo sapiens, RS4-11; Table 2; 48 hr; MTS; read-out: Anti-Cancer Activity IC50 (48 hr) RS4; 11
# Method: as §1
Compound,IC50 [1],IC50 [2]
"Cc1ncsc1-c1ccc([C@H](C)NC(=O)[C@@H]2C[C@@H](O)CN2C(=O)[C@@H](NC(=O)COCCOCc2cn(CC3(C)CCC(c4ccc(Cl)cc4)=C(CN4CCN(c5ccc(C(=O)NS(=O)(=O)c6ccc(N[C@H](CCN7CCOCC7)CSc7ccccc7)c(S(=O)(=O)C(F)(F)F)c6)cc5)CC4)C3)nn2)C(C)(C)C)cc1 (stereo partly drawn) [Compound 21, (2S,4R)-1-((2S)-2-(2-(2-((1-((4′-chloro-4-methyl-6-((4-(4-(((4-(((R)-4-morpholino-1-(phenylthio)butan-2-yl)amino)-3-((trifluoromethyl)sulfonyl)phenyl)sulfonyl)carbamoyl)phenyl)piperazin-1-yl)methyl)-2,3,4,5-tetrahydro-[1,1′-biphenyl]-4-yl)methyl)-1H-1,2,3-triazol-4-yl)methoxy)ethoxy)acetamido)-3,3-dimethylbutanoyl)-4-hydroxy-N—((S)-1-(4-(4-methylthiazol-5-yl)phenyl)ethyl)pyrrolidine-2-carboxamide]",100 to 500 nM,20 to 100 nM
Cc1ncsc1-c1ccc([C@H](C)NC(=O)[C@@H]2C[C@@H](O)CN2C(=O)[C@@H](NC(=O)CC2CCN(CC(=O)N3CCN(CC4(C)CCC(c5ccc(Cl)cc5)=C(CN5CCN(c6ccc(C(=O)NS(=O)(=O)c7ccc(N[C@H](CCN8CCOCC8)CSc8ccccc8)c(S(=O)(=O)C(F)(F)F)c7)cc6)CC5)C4)CC3)CC2)C(C)(C)C)cc1 (stereo partly drawn) [Compound 27],100 to 500 nM,100 to 500 nM
"Cc1ncsc1-c1ccc([C@H](C)NC(=O)[C@@H]2C[C@@H](O)CN2C(=O)[C@@H](NC(=O)CCCCCCC(=O)N2CCN(C[C@]3(C)CCC(c4ccc(Cl)cc4)=C(CN4CCN(c5ccc(C(=O)NS(=O)(=O)c6ccc(N[C@H](CCN7CCCCC7)CSc7ccccc7)c(S(=O)(=O)C(F)(F)F)c6)cc5)CC4)C3)CC2)C(C)(C)C)cc1 [Compound 58, (2S,4R)-1-((S)-2-(8-(4-(((R)-4′-chloro-4-methyl-6-((4-(4-(((4-(((R)-1-(phenylthio)-4-(piperidin-1-yl)butan-2-yl)amino)-3-((trifluoromethyl)sulfonyl)phenyl)sulfonyl)carbamoyl)phenyl)piperazin-1-yl)methyl)-2,3,4,5-tetrahydro-[1,1′-biphenyl]-4-yl)methyl)piperazin-1-yl)-8-oxooctanamido)-3,3-dimethylbutanoyl)-4-hydroxy-N—((S)-1-(4-(4-methylthiazol-5-yl)phenyl)ethyl)pyrrolidine-2-carboxamide]",< 20 nM,< 20 nM
Cc1ncsc1-c1ccc([C@H](C)NC(=O)[C@@H]2C[C@@H](O)CN2C(=O)[C@@H](NC(=O)CCCNC(=O)c2ccc(N3CCN(CC4(C)CCC(c5ccc(Cl)cc5)=C(CN5CCN(c6ccc(C(=O)NS(=O)(=O)c7ccc(N[C@H](CCN8CCOCC8)CSc8ccccc8)c(S(=O)(=O)C(F)(F)F)c7)cc6)CC5)C4)CC3)cn2)C(C)(C)C)cc1 (stereo partly drawn) [Compound 4],20 to 100 nM,20 to 100 nM

# Results, then the molecule that gave them:
IC50 [1],IC50 [2],Compound
< 20 nM,< 20 nM,Cc1ncsc1-c1ccc([C@H](C)NC(=O)[C@@H]2C[C@@H](O)CN2C(=O)[C@@H](NC(=O)CCCCCCC(=O)N2CCN(C[C@]3(C)CCC(c4ccc(Cl)cc4)=C(CN4CCN(c5ccc(C(=O)NS(=O)(=O)c6ccc(N[C@H](CCN7C[C@H]8COC[C@H]8C7)CSc7ccccc7)c(S(=O)(=O)C(F)(F)F)c6)cc5)CC4)C3)CC2)C(C)(C)C)cc1 [Compound 95]
< 20 nM,< 20 nM,Cc1ncsc1-c1ccc([C@H](C)NC(=O)[C@@H]2C[C@@H](O)CN2C(=O)[C@@H](NC(=O)CCCCCCC(=O)N2CCN(C[C@]3(C)CCC(c4ccc(Cl)cc4)=C(CN4CCN(c5ccc(C(=O)NS(=O)(=O)c6ccc(N[C@H](CCN7CC8CCC7C8)CSc7ccccc7)c(S(=O)(=O)C(F)(F)F)c6)cc5)CC4)C3)CC2)C(C)(C)C)cc1 (stereo partly drawn) [Compound 67]

# — patent US20250154141A1 (University of Florida Research Foundation, Incorporated, priority 2021, published 2025)
